ChEMBL document CHEMBL1909046, “DrugMatrix in vitro pharmacology data”

Assays:
[1] = molecular target: Sigma non-opioid intracellular receptor 1 (Homo sapiens, UniProt Q99720); assay: DRUGMATRIX: Sigma1 radioligand binding (ligand: [3H] Haloperidol); type: cell membranes, Jurkat, Membrane; conditions: Not Active = under 50% inhibition at 10 µM
[2] = DRUGMATRIX: Sigma2 radioligand binding (ligand: [3H] Ifenprodil); type: cell membranes, Rattus norvegicus, Wistar, Brain, Membrane; conditions: Not Active = under 50% inhibition at 10 µM
Substance-P receptor = Substance-P receptor (Homo sapiens, UniProt P25103); type: cell membranes, CHO, Membrane; conditions: cho; further: in other assays of this panel Not Active means under 50% inhibition at 10 µM
[3] = DRUGMATRIX: GABAA, Flunitrazepam, Central radioligand binding (ligand: [3H] Flunitrazepam); type: cell membranes, Rattus norvegicus, Wistar, Brain, Membrane; conditions: Not Active = under 50% inhibition at 10 µM
[4] = DRUGMATRIX: Glutamate, Kainate radioligand binding (ligand: [3H] Kainic acid); type: cell membranes, Rattus norvegicus, Wistar, Brain, Membrane; conditions: Not Active = under 50% inhibition at 10 µM
Leukotriene C4 synthase = molecular target: T1, Leukotriene C4 synthase (Cavia porcellus, UniProt A6XA80); assay: biochemical; type: tissue-based, Lung;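 further: enzyme inhibition assay of leukotriene C4 synthase, using LTA4 as the substrate; in other assays of this panel Not Active means under 50% inhibition at 10 µM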
T1 sequence (A6XA80 whole entry): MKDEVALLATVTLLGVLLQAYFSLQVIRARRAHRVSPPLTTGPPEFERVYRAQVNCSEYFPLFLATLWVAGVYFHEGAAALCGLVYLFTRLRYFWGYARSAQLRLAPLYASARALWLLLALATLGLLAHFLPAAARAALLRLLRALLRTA

[5] = molecular target: T2, Polyunsaturated fatty acid lipoxygenase ALOX15 (Oryctolagus cuniculus, UniProt P12530); assay: biochemical; type: tissue-based, Reticulocytes; conditions: reticulocytes;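 further: inhibition of 15-lipoxygenase enzyme activity measured with linoleic acid as the substrate; in other assays of this panel Not Active means under 50% inhibition at 10 µM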
T2 sequence (P12530 whole entry): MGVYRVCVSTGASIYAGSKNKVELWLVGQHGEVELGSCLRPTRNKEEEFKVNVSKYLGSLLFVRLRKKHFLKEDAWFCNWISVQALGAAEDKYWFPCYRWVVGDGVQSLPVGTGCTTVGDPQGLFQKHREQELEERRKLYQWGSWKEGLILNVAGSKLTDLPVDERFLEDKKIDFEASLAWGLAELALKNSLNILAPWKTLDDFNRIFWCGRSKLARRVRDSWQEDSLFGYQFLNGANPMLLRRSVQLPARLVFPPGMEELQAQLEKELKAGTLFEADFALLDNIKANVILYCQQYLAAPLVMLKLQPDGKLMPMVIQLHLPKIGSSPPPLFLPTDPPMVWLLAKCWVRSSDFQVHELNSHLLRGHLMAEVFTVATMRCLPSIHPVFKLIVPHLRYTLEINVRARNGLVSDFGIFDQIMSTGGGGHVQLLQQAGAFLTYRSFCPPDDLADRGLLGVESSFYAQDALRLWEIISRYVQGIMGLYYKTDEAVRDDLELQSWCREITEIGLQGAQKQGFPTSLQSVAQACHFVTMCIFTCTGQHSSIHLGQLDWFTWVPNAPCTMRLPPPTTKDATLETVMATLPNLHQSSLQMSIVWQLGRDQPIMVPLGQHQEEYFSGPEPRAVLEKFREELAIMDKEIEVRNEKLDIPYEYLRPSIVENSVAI

[6] = DRUGMATRIX: Phorbol Ester radioligand binding (ligand: [3H] PDBu); type: cell membranes, Mus musculus, ICR, Brain, Membrane; conditions: Not Active = under 50% inhibition at 10 µM
[7] = molecular target: cGMP-specific 3',5'-cyclic phosphodiesterase (Homo sapiens, UniProt O76074); assay: DRUGMATRIX: Phosphodiesterase PDE5 enzyme inhibition (substrate: [3H]cGMP + cGMP); type: tissue-based, Platelet; conditions: platelet; Not Active = under 50% inhibition at 10 µM
[8] = molecular target: Platelet-activating factor receptor (Homo sapiens, UniProt P25105); assay: biochemical; type: tissue-based; conditions: platelet; further: in other assays of this panel Not Active means under 50% inhibition at 10 µM
[9] = molecular target: Matrix metalloproteinase-9 (Homo sapiens, UniProt P14780); type: cell-based
[10] = molecular target: Protein phosphatase 3 catalytic subunit alpha (Homo sapiens, UniProt Q08209); parameters: species or system Escherichia coli
[11] = molecular target: 5-hydroxytryptamine receptor 1B (Rattus norvegicus, UniProt P28564); type: cell membranes, Wistar, Cerebral cortex, Membrane; further: in other assays of this panel Not Active means under 50% inhibition at 10 µM
Cytochrome P450 2A6 = molecular target: T3, Cytochrome P450 2A6 (Homo sapiens, UniProt P11509); conditions: bti-tn-5b1-4; further: in other assays of this panel Not Active means under 50% inhibition at 10 µM
T3 sequence (P11509 whole entry): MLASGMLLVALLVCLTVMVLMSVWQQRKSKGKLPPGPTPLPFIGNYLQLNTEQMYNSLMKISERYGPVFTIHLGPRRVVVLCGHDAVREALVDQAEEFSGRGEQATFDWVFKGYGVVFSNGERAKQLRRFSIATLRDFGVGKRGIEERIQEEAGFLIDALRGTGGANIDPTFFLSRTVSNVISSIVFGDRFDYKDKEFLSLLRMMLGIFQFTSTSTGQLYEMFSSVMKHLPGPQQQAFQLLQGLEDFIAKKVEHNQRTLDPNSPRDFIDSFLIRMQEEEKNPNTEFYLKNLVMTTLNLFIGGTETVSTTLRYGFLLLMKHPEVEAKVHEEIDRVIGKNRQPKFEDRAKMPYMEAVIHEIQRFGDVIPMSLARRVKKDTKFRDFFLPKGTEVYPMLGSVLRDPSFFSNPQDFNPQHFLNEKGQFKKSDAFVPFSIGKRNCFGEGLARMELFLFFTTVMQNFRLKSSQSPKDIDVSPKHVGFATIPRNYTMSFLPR

Estrogen receptor = molecular target: T4, Estrogen receptor (Homo sapiens, UniProt P03372); conditions: sf9; further: in other assays of this panel Not Active means under 50% inhibition at 10 µM
T4 sequence (P03372 whole entry): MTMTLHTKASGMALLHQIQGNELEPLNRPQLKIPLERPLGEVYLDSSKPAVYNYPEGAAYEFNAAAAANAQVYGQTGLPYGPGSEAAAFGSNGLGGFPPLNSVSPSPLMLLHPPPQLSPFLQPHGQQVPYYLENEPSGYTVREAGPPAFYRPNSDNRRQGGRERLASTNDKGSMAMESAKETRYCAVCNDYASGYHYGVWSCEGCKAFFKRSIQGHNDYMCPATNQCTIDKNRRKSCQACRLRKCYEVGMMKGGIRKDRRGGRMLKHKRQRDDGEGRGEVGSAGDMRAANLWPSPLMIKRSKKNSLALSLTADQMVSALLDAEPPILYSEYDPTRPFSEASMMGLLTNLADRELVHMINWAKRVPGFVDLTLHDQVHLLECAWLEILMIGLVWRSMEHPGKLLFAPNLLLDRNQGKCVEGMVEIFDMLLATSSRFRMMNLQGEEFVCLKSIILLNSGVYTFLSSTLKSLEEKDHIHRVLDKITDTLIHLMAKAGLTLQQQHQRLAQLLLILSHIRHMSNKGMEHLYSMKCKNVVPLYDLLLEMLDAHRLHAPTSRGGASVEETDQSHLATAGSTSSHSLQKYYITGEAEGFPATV

Chain of Sigma non-opioid intracellular receptor 1 (Q99720 whole entry): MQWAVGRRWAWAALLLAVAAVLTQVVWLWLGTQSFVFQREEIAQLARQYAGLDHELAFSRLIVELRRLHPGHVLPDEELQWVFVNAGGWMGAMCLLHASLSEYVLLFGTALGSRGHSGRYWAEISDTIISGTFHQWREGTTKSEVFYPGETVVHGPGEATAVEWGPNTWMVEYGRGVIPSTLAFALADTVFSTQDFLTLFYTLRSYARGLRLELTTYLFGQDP
Chain of Matrix metalloproteinase-9 (P14780 whole entry): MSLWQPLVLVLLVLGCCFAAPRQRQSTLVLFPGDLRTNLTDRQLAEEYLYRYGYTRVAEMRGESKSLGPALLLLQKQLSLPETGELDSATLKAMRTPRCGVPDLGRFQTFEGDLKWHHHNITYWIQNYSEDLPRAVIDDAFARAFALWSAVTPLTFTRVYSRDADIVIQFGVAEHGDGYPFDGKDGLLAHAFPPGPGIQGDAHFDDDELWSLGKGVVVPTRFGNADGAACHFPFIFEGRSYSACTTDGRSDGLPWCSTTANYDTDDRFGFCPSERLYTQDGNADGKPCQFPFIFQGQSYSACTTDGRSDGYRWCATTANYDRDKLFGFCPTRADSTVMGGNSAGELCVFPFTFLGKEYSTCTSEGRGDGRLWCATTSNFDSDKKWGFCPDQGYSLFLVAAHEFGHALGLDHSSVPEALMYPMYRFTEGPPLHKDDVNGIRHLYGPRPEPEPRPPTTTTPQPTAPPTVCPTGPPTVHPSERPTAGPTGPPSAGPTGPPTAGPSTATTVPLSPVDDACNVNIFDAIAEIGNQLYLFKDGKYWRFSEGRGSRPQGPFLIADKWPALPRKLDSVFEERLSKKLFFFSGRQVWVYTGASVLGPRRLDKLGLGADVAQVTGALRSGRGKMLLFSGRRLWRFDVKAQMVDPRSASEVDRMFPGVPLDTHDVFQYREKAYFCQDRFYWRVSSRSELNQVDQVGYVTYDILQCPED
Chain of 5-hydroxytryptamine receptor 1B (P28564 whole entry): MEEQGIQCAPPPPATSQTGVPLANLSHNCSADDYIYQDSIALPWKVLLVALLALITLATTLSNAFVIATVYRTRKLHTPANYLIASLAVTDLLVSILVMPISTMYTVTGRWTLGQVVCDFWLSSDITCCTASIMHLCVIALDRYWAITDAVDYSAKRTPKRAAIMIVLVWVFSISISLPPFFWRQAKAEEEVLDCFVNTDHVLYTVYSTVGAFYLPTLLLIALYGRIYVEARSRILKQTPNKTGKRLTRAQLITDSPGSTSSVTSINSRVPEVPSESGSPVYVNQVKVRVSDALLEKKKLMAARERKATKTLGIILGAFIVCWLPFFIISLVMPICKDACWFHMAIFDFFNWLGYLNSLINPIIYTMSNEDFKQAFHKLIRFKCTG
Chain of Platelet-activating factor receptor (P25105 whole entry): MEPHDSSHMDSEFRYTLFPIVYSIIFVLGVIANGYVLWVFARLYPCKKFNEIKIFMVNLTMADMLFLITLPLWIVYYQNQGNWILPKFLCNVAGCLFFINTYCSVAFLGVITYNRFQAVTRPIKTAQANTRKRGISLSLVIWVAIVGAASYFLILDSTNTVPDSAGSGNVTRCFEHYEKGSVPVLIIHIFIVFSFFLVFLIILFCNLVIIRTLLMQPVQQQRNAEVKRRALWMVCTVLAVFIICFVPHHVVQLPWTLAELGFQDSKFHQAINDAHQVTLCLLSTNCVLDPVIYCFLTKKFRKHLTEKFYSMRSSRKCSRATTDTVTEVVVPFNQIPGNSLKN
Chain of Substance-P receptor (P25103 whole entry): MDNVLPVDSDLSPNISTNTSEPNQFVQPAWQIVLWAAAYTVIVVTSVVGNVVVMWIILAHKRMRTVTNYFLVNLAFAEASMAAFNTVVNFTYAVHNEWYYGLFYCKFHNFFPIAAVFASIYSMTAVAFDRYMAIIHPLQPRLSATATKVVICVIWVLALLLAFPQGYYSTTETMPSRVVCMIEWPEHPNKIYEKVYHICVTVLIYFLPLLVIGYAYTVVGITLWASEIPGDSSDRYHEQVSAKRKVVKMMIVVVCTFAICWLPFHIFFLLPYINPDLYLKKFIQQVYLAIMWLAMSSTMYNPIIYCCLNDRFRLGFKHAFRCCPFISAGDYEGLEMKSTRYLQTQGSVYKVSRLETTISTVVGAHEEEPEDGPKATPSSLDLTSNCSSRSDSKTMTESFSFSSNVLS

SMILES | IC50 ([1]; jurkat) | IC50 [2] | Ki [2] | IC50 (Substance-P receptor) | IC50 [3] | Ki [3] | IC50 [4] | Ki [4] | IC50 (Leukotriene C4 synthase) | IC50 [5] | IC50 [6] | Ki [6] | IC50 [7] | IC50 [8] | IC50 [9] | IC50 [10] | IC50 [11] | IC50 (Cytochrome P450 2A6) | Ki (Cytochrome P450 2A6) | IC50 (Estrogen receptor) | further results
NCC[C@H](O)C(=O)N[C@@H]1C[C@H](N)[C@@H](O[C@H]2O[C@H](CN)[C@@H](O)[C@H](O)[C@H]2O)[C@H](O)[C@H]1O[C@H]1O[C@H](CO)[C@@H](O)[C@H](N)[C@H]1O [AMIKACIN] | Not Active | Not Active | Not Active | Not Active | Not Active | Not Active | Not Active | Not Active | Not Active | Not Active | Not Active | Not Active | Not Active | Not Active | Not Active | Not Active | Not Active | Not Active | Not Active | Not Active | 
CC(/C=C1\SC(=S)N(CC(=O)O)C1=O)=C\c1ccccc1 | Not Active | Not Active | Not Active | Not Active | Not Active | Not Active | Not Active | Not Active | Not Active | Not Active | Not Active | Not Active | Not Active | Not Active | Not Active | Not Active | Not Active | Not Active | Not Active | Not Active | 
CNCCC=C1c2ccccc2CCc2ccccc21 [NORTRIPTYLINE] | Not Active | Not Active | Not Active | Not Active | Not Active | Not Active | Not Active | Not Active | Not Active | Not Active | Not Active | Not Active | Not Active | Not Active | Not Active | Not Active |  | Not Active | Not Active | Not Active | IC50 ([11]; read-out: IC50): 3.2 µM; Ki ([11]; read-out: Ki): 1.45 µM
Fc1ccc([C@@H]2CCNC[C@H]2COc2ccc3c(c2)OCO3)cc1 [PAROXETINE] |  | Not Active | Not Active | Not Active | Not Active | Not Active | Not Active | Not Active | Not Active | Not Active | Not Active | Not Active | Not Active | Not Active | Not Active | Not Active | Not Active | Not Active | Not Active | Not Active | IC50 ([1]; read-out: IC50): 5.37 µM; Ki ([1]; read-out: Ki): 2.26 µM
CC=CC(=O)N(CC)c1ccccc1C | Not Active | Not Active | Not Active | Not Active | Not Active | Not Active | Not Active | Not Active | Not Active | Not Active | Not Active | Not Active | Not Active | Not Active | Not Active | Not Active | Not Active | Not Active | Not Active | Not Active | 
CC(=O)O[C@]1(C(C)=O)CC[C@H]2[C@@H]3C=C(Cl)C4=CC(=O)CC[C@]4(C)[C@H]3CC[C@@]21C [CHLORMADINONE ACETATE] | Not Active | Not Active | Not Active | Not Active | Not Active | Not Active | Not Active | Not Active | Not Active | Not Active | Not Active | Not Active | Not Active | Not Active | Not Active | Not Active | Not Active | Not Active | Not Active | Not Active | 
Cn1cnc([N+](=O)[O-])c1Sc1ncnc2nc[nH]c12 [AZATHIOPRINE] | Not Active | Not Active | Not Active | Not Active | Not Active | Not Active | Not Active | Not Active | Not Active | Not Active | Not Active | Not Active | Not Active | Not Active | Not Active | Not Active | Not Active | Not Active | Not Active | Not Active | 
